Tested on: ADMP
Settings: GLU to GLN substitution at position 373 (P1)

Q: For “QTVTWPDMELPLPRNITEGQARGSVILTVK-Biotin [30-IP]”, which “mode of inhibition of the enzyme” value is on record?
A: The value was “competitive inhibitor”.

Reference: patent publication US7223834B2, “Assays and peptide substrate for determining aggrecan degrading metallo protease activity” (Bristol-Myers Squibb Pharma Company, priority 1997, dated 2007)
